Measured values as given in ChEMBL document CHEMBL1201862, “PubChem BioAssay data set” (2004).
The source made the active and inactive calls.

Key:
[1] = target: T1, G-protein coupled receptor 35 (Homo sapiens, UniProt Q9HC97); assay: SAR analysis of Agonists of the GPR35 Receptor using an Image-Based Assay - Set 4. [Related pubchem assays (depositor defined):AID2013, AID2026]; format: functional
Cannabinoid receptor 1 [2] = target: T2, Cannabinoid receptor 1 (Homo sapiens, UniProt P21554); assay: SAR analysis of agonists of the Cannabinoid Receptor 1 using an Image-Based Assay - Set 4. [Related pubchem assays (depositor defined):AID2013, AID2026]; format: functional
[3] = target: T1, G-protein coupled receptor 35; assay: SAR analysis of Antagonists of the GPR35 Receptor using an Image-Based Assay - Set 6. [Related pubchem assays (depositor defined):AID2013, AID2026]; format: functional
Cannabinoid receptor 1 [4] = target: T2, Cannabinoid receptor 1; assay: SAR analysis of antagonists of the Cannabinoid Receptor 1 using an Image-Based Assay - Set 4. [Related pubchem assays (depositor defined):AID2013, AID2026]; format: functional
[5] = target: G-protein coupled receptor 55 (Homo sapiens, UniProt Q9Y2T6); assay: SAR Analysis of Selective Antagonists of GPR55 using an Image-Based Assay - Set 4. [Related pubchem assays (depositor defined):AID2013, AID2026]; format: functional;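 further: antagonism of response to 5 µM lysophosphatidylinositol agonist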
Cannabinoid receptor 2 [6] = target: T3, Cannabinoid receptor 2 (Homo sapiens, UniProt P34972); assay: SAR analysis of antagonists of the Cannabinoid Receptor 2 using an Image-Based Assay - Set 3. [Related pubchem assays (depositor defined):AID2013, AID2026]; format: functional
T3 sequence (P34972 whole entry): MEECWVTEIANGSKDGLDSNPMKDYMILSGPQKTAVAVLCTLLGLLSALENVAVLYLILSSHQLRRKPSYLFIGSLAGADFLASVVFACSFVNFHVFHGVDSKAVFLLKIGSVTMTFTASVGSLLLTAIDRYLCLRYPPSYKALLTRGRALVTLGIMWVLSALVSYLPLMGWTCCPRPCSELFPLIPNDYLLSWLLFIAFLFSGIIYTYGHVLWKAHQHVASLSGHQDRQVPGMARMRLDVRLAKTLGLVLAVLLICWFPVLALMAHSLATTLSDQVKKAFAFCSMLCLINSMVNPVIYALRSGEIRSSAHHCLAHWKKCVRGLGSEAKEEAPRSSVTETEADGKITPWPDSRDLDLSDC

Cannabinoid receptor 2 [7] = target: T3, Cannabinoid receptor 2; assay: SAR analysis of agonists of the Cannabinoid Receptor 2 using an Image-Based Assay - Set 3. [Related pubchem assays (depositor defined):AID2013, AID2026]; format: functional
[8] = insulin promoter down-regulators in MIN6 cells, imaging, high-content screening, mouse beta cells (AID 1628); format: functional
[9] = cytotoxicity in MIN6 insulinoma cells, dose response, cytotoxicity control, cell-based, mouse insulinoma (AID 2122); format: functional;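 further: confirmatory high-throughput counterscreen run to flag cytotoxic compounds; mouse MIN-6 beta cells carrying an insulin promoter eGFP reporter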
SUMO E1/E2 = SUMO E1/E2 (Homo sapiens, UniProt P63279+Q9UBE0+Q9UBT2); assay: SAR analysis of SUMOylation using HTRF in an in-Vitro dose response assay. [Related pubchem assays (depositor defined):AID2006, AID2011, AID2018, AID2069, AID2658]; format: functional
[10] = target: T4, Voltage-gated N-type calcium channel alpha-1B subunit/Amyloid beta A4 precursor protein-binding family A member 1 (Homo sapiens, UniProt Q00975+Q02410); assay: disruptors of Mint-PDZ/N-type channel peptide interaction – biochemical, HTRF, set 2, SAR follow-up (AID 434980); format: functional
T4 sequence (Q00975 whole entry): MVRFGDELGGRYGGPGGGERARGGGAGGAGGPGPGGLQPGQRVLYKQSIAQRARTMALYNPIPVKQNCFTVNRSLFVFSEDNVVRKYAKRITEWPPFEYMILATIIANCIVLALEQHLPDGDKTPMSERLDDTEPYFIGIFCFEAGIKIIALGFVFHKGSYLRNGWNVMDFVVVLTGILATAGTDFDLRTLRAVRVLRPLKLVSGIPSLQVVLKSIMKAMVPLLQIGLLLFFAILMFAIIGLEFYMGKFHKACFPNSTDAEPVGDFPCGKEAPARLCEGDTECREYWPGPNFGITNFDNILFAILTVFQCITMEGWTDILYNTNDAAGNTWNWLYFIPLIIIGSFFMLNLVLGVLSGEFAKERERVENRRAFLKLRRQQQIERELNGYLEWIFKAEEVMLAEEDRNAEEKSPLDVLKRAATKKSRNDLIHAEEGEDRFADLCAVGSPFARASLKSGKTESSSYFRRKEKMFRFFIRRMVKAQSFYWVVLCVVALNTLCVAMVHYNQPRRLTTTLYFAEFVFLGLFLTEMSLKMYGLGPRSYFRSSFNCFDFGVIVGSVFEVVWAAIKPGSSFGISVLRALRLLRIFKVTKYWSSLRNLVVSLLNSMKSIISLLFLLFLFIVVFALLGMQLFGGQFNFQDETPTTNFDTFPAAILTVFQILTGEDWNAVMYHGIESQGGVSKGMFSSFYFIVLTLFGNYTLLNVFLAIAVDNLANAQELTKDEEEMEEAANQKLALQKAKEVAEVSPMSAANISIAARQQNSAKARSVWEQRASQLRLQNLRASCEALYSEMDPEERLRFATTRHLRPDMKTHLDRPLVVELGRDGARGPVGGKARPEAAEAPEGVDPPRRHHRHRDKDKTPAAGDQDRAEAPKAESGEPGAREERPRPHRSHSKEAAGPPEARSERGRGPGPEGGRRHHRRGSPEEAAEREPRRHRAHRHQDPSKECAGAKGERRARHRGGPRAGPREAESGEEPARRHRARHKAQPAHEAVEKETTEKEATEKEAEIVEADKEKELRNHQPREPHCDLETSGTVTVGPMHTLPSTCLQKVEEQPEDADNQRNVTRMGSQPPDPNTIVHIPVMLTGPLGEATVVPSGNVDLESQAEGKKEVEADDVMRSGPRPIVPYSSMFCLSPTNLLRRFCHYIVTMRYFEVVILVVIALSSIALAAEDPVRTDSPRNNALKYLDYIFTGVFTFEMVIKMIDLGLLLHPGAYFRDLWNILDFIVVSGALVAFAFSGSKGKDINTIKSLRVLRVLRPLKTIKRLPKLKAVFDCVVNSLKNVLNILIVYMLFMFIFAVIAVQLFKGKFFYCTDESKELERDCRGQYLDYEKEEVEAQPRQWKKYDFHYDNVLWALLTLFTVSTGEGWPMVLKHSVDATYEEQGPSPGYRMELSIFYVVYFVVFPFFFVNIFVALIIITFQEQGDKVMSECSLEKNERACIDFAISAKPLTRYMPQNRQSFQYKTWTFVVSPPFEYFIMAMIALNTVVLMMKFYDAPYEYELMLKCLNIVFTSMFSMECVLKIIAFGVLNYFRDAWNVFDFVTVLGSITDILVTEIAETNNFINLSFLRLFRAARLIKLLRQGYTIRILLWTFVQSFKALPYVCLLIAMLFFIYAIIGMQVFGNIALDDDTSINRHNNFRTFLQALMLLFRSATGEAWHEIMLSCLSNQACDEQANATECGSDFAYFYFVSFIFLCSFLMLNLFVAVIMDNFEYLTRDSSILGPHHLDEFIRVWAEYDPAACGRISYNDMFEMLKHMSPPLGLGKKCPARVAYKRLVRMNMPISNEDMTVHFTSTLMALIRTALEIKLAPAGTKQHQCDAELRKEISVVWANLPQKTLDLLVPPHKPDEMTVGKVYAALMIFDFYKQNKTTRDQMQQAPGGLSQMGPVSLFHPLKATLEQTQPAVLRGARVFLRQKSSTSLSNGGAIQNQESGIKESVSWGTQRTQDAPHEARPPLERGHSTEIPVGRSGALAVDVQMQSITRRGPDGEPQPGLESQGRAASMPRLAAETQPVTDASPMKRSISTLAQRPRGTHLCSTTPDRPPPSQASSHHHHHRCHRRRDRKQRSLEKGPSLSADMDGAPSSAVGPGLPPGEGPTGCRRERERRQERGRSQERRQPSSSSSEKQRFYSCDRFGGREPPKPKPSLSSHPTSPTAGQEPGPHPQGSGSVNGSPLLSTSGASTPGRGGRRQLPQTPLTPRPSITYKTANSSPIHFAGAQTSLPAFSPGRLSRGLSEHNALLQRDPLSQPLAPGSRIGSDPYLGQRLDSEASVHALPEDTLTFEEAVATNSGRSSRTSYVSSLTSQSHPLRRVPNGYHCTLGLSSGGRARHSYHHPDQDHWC
T4 sequence (Q02410 whole entry): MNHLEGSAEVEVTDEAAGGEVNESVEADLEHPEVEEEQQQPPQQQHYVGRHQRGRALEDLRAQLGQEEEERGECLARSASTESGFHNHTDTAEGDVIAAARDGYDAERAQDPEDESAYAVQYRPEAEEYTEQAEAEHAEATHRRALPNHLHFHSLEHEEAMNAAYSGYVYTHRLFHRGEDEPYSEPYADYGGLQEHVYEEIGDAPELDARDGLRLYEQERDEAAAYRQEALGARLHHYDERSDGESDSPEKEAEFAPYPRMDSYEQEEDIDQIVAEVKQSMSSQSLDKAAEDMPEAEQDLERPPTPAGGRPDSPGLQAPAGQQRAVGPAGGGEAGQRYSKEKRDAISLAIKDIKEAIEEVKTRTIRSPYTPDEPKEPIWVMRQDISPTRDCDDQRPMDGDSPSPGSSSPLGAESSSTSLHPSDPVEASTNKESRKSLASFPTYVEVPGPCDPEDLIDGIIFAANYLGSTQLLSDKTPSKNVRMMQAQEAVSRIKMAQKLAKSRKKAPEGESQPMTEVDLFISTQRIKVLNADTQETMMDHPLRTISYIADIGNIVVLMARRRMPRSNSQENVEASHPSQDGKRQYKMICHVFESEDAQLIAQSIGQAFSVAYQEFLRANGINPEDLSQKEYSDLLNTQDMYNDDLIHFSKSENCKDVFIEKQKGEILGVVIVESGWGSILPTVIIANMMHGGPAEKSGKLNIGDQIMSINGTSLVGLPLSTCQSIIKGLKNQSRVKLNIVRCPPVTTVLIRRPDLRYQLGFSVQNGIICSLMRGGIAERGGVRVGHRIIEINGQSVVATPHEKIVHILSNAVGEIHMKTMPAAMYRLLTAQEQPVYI

[11] = target: T4, Voltage-gated N-type calcium channel alpha-1B subunit/Amyloid beta A4 precursor protein-binding family A member 1; assay: disruptors of Mint-PDZ/N-type channel peptide interaction – biochemical, HTRF, SAR follow-up (AID 2489); format: functional
[12] = NIH-3T3 fibroblast cytotoxicity, dose response, cytotoxicity control, cell-based, fluorescence, Alamar Blue, secondary assay (AID 2327); format: functional;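 further: NIH-3T3 mouse fibroblasts cultured with fluconazole at 8 µg/mL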
Nonstructural protein 1 = Nonstructural protein 1 (Influenza A virus, UniProt Q194T2); format: functional, Influenza A virus (A/California/07/2009(H1N1))
[13] = target: Lysine-specific demethylase 4C (Homo sapiens, UniProt Q9H3R0); assay: GASC-1 (JMJD2C) histone demethylase inhibitors, dose response, biochemical, DELFIA europium, cherry-picked samples (AID 488835); format: functional
[14] = target: Glyceraldehyde-3-phosphate dehydrogenase (Homo sapiens, UniProt P04406)
HEK293 = assay: cells; format: functional, cell-based; details: Homo sapiens
[15] = target: T5, Nuclear receptor subfamily 0 group B member 1 (Homo sapiens, UniProt P51843); assay: Luminescence-based cell-based high throughput dose response assay for inhibitors of the orphan nuclear receptor subfamily 0, group B, member 1 (DAX1; NR0B1). [Related pubchem assays (depositor defined):AID504766, AID504790]; format: functional
T5 sequence (P51843 whole entry): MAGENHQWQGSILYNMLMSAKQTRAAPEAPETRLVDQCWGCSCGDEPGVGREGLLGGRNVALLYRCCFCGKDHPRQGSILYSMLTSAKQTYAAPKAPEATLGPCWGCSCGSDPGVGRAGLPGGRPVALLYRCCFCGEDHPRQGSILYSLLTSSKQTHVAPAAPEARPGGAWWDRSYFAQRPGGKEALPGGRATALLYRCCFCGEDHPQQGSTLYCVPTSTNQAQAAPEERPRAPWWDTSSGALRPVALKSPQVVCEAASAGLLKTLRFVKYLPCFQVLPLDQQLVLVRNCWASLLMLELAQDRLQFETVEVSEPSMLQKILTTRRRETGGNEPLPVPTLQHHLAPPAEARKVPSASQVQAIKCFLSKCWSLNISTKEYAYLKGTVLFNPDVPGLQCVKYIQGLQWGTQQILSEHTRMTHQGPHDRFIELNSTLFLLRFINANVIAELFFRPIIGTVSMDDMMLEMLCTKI

A-375 [16] = assay: MITF: Counter assay: A375 proliferation Measured in Cell-Based System Using Plate Reader - 2084-03_Inhibitor_Dose_DryPowder_Activity. [Related pubchem assays (depositor defined):AID488944]; format: functional; details: Homo sapiens
A-375 [17] = assay: A375 melanoma cell viability reduction, dose response, counter-screen for MITF modulator project, cherry-pick samples, set 2 (AID 540335); format: functional, cell-based; details: Homo sapiens
[18] = target: T6, Delta-type opioid receptor (Homo sapiens, UniProt P41143); assay: HTS Image-Based Screen for Antagonists of the DOR Receptor. [Related pubchem assays (depositor defined):AID1777, AID1785, AID1786, AID2133]; format: functional
Mu-type opioid receptor = Mu-type opioid receptor (Homo sapiens, UniProt P35372); assay: HTS Image-Based Screen for Agonists of the MOR Receptor. [Related pubchem assays (depositor defined):AID1777, AID1785, AID1786, AID2133]; format: functional;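 further: imaging of beta-arrestin GFP recruitment into spots after receptor activation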
[19] = target: T6, Delta-type opioid receptor; assay: HTS Image-Based Screen for Agonists of the DOR Receptor. [Related pubchem assays (depositor defined):AID1777, AID1786, AID2133]; format: functional
[20] = target: T7, Kappa-type opioid receptor (Homo sapiens, UniProt P41145); format: functional
Beta-galactosidase [21] = target: T8, Beta-galactosidase (Escherichia coli, UniProt Q8VNN2); format: functional
T8 sequence (Q8VNN2 whole entry): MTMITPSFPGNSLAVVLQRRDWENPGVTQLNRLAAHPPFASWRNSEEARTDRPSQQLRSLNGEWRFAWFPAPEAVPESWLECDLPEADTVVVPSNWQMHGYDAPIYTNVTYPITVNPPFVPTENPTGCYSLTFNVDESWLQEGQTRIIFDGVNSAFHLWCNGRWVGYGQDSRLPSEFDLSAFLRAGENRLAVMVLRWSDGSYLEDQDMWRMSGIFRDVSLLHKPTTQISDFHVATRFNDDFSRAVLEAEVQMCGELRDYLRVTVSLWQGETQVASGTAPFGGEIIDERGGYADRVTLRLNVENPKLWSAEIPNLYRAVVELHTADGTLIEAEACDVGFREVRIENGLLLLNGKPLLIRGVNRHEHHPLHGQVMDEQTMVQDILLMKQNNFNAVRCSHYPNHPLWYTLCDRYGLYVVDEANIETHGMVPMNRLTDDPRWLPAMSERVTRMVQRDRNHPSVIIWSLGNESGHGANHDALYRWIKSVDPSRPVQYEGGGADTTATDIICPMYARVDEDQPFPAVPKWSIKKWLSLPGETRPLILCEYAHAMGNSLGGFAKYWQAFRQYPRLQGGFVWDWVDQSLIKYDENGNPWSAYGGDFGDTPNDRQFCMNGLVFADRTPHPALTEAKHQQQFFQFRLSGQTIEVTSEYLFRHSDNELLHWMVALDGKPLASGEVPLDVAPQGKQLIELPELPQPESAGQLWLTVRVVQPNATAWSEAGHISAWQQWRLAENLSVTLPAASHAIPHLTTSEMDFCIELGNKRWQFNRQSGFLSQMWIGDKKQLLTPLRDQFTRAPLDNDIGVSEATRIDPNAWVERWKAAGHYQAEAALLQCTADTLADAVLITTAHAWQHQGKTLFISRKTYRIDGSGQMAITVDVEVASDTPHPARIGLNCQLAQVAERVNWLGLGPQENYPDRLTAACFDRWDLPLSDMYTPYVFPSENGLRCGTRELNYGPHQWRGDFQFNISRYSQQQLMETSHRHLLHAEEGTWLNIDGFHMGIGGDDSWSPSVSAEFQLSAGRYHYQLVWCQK

[22] = target: T7, Kappa-type opioid receptor; format: functional; remark: listed apart in the source
[23] = inhibitors of intracellular T. cruzi replication, confirmation, NIH3T3 host cells, beta-gal luminescence (AID 2044); format: functional, cell-based;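 further: intracellular parasites grown in NIH/3T3 mouse fibroblasts as host cells; luminescent beta-galactosidase reporter signal from transgenic T. cruzi replicating inside host cells; inhibitors lower the luminescence signal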
[24] = cytotoxicity toward NIH3T3 fibroblasts, dose response, counter-screen, cell-based, ATP luminescence, mouse fibroblasts (AID 2010); format: functional;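 further: cells exposed to compound for about 90 hours before reading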
Beta-galactosidase [25] = target: T8, Beta-galactosidase; assay: beta-galactosidase enzyme inhibitors and activators, dose response, artefact control for CCR6 antagonist project, biochemical, E. coli enzyme, set 3 (AID 504712); format: functional
[26] = target: T9, Microphthalmia-associated transcription factor (Homo sapiens, UniProt O75030); assay: TRPM1 promoter luciferase signal decrease, dose response, MITF inhibitor project, cell-based, SK-MEL-5, cherry-picked, set 3 (AID 493073); format: functional
T9 sequence (O75030 whole entry): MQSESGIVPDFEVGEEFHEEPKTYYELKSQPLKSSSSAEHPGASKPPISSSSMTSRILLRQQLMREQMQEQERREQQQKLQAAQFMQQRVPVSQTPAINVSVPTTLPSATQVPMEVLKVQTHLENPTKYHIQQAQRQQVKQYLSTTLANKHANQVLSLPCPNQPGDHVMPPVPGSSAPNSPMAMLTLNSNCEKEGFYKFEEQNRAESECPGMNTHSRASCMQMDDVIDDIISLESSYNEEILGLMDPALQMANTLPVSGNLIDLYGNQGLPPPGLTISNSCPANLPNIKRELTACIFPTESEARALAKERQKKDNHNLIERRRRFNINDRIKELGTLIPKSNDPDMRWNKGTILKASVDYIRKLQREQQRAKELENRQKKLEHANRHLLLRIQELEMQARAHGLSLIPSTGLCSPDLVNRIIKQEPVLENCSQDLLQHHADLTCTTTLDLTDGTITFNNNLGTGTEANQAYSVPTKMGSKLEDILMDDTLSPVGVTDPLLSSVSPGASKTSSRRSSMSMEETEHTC

Cytochrome P450 2D6 = Cytochrome P450 2D6 (Homo sapiens, UniProt P10635);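 further: CYP2D6 member of a cytochrome P450 panel assay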
Cytochrome P450 1A2 = target: T10, Cytochrome P450 1A2 (Homo sapiens, UniProt P05177);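 further: PubChem cytochrome P450 panel assay, CYP1A2 panel member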
T10 sequence (P05177 whole entry): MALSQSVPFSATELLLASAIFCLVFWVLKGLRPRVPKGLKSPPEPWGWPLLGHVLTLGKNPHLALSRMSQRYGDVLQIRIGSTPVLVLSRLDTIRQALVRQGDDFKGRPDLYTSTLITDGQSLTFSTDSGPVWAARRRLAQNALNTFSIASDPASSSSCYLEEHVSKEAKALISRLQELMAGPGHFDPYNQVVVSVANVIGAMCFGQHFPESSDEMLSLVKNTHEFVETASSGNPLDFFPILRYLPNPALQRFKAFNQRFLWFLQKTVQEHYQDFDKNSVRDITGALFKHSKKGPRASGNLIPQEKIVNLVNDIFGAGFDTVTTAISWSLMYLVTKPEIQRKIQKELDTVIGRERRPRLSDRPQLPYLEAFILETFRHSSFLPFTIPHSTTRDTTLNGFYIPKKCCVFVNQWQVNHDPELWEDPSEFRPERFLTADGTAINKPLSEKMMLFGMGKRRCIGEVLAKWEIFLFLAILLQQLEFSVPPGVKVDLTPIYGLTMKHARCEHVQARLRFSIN

Cytochrome P450 2C9 = Cytochrome P450 2C9 (Homo sapiens, UniProt P11712)
Cytochrome P450 2C9, sequence (P11712 whole entry): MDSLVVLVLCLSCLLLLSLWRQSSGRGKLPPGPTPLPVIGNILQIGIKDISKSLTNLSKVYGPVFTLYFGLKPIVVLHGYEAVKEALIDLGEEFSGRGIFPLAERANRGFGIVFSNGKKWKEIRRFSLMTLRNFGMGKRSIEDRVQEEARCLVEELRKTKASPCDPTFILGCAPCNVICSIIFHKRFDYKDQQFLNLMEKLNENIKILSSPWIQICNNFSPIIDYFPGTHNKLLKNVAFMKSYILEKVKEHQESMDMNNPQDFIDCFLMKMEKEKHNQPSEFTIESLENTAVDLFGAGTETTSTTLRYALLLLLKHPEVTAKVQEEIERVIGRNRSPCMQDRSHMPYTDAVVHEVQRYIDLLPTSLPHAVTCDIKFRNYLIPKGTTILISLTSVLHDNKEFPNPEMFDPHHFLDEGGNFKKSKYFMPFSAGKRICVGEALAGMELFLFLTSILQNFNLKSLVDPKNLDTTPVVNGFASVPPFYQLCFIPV

[27] = target: T11, Mannose-6-phosphate isomerase (Homo sapiens, UniProt P34949); assay: PMI enzyme inhibitors, confirmation, biochemical, fluorescence intensity (AID 1535)
T11 sequence (P34949 whole entry): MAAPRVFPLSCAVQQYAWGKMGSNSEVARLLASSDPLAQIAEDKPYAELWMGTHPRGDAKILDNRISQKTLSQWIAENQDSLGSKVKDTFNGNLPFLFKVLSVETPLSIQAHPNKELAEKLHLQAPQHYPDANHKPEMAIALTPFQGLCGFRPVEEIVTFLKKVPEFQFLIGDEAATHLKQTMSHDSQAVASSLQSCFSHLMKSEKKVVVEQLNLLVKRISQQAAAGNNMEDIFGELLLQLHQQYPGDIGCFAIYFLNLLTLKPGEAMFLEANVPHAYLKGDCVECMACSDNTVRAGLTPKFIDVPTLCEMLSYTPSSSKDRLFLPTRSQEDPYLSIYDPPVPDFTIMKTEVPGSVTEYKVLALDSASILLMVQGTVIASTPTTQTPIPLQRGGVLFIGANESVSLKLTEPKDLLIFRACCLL

Phosphomannomutase 2 = Phosphomannomutase 2 (Homo sapiens, UniProt O15305); assay: Counter screen SAR assay for PMM2 inhibitors via a fluorescence intensity assay. [Related pubchem assays (depositor defined):AID1545, AID1574]
Cytochrome P450 2C19 = Cytochrome P450 2C19 (Homo sapiens, UniProt P33261); assay: Cytochrome panel assay with activity outcomes. Panel member name: p450-cyp2c19 Compounds with AC50 equal or less than 10 uM are considered active; format: functional

Cc1nnc(-c2cccc(Br)c2)c2cn(-c3ccccc3)nc12
EC50 [1]: > 32 µM (inactive)
EC50 (Cannabinoid receptor 1 [2]): > 32 µM (inactive)
IC50 [3]: > 32 µM (inactive)
IC50 (Cannabinoid receptor 1 [4]): 1.68 µM (active)
IC50 [5]: 3.95 µM (active)
IC50 (Cannabinoid receptor 2 [6]): 10.4 µM (inactive)
EC50 (Cannabinoid receptor 2 [7]): > 32 µM (inactive)

Cn1c2c(c(=O)[nH]c1=O)C(c1cccc(O)c1)C1=C(O)c3ccccc3C1=N2 (configuration not stated)
IC50 [8]: 1.87 µM (active)
IC50 [9]: 1.92 µM (active)

COc1ccccc1COC(=O)COC(=O)c1cc(-c2ccco2)nc2ccccc12
IC50 (SUMO E1/E2): 12.9 µM (active)
IC50 [10]: 6.59 µM (active)
IC50 [11]: 9.09 µM (active)

Cc1ccc(O)c(NN=C2C(=O)CC(C)(C)CC2=O)c1
EC50 [12]: > 160 µM (inactive)
IC50 (Nonstructural protein 1): 13.2 µM (active)
AC50 [13]: 10.5 µM (active)

NS(=O)(=O)c1ccc2c(c1)C1C=CCC1C(c1ccc([N+](=O)[O-])cc1)N2 (configuration not stated)
IC50 [14]: > 100 µM (not active)
IC50 (SUMO E1/E2): > 100 µM (inactive)

CC(=O)c1c(C)[nH]c(C(=O)Nc2ccc(Cl)c(S(=O)(=O)N(C)C)c2)c1C
IC50 (HEK293): > 67.5 µM (inactive)
IC50 [15]: > 67.5 µM (inactive)

O=C(Nc1ccc(-c2cn3c(n2)SCC3)cc1)c1ccco1
AC50 (A-375 [16]): > 35 µM (active)
AC50 (A-375 [17]): > 35 µM (active)

CN1C(C(=O)Nc2cccc(O)c2)=CC(c2ccco2)=NS1(=O)=O
IC50 (HEK293): > 67.6 µM (inactive)
IC50 [15]: > 67.6 µM (inactive)

CCN(CCCNC(=O)C1CCN(S(=O)(=O)N2CCC3(CC2)OCCO3)CC1)c1ccccc1
IC50 [18]: > 32 µM (inactive)
EC50 (Mu-type opioid receptor): > 32 µM (inactive)
EC50 [19]: > 32 µM (inactive)
IC50 [20]: 9.46 µM (active)
EC50 (Beta-galactosidase [21]): > 31.5 µM (inactive)
IC50 [22]: 9.69 µM

CS(=O)(=O)c1ccc([S+]([O-])CC(=O)OCc2ccccc2)c([N+](=O)[O-])c1 (configuration not stated)
EC50 [23]: 3.05 µM (active)
EC50 [24]: 2.01 µM (active)
IC50 (Beta-galactosidase [25]): > 66.6 µM (inactive)
AC50 [26]: 5.46 µM (active)
AC50 (A-375 [17]): 21 µM (active)

COC(=O)N1CCC[C@@]2(CCN(c3ccncc3)C2)C1
AC50 (Cytochrome P450 2D6): inconclusive
AC50 (Cytochrome P450 1A2): inconclusive
AC50 (Cytochrome P450 2C9): inconclusive

O=[N+]([O-])c1ccc(/N=c2/ssnc2Cl)c([N+](=O)[O-])c1
IC50 [27]: 3.52 µM (active)
IC50 (Phosphomannomutase 2): 58.4 µM (active)

CS(=O)(=O)N1CCC2(CCN(c3cccc(-c4ccccc4)c3)CC2)CC1
AC50 (Cytochrome P450 2C19): inconclusive
AC50 (Cytochrome P450 1A2): inconclusive
AC50 (Cytochrome P450 2C9): inconclusive
